Test results as given in US20240344145A1, “PHARMACOGENOMICS SCORE TO MAKE DECISIONS ON THERAPY AUGMENTATION IN AML” (University of Florida Research Foundation, Incorporated, priority 2021, published 2024).

Tested on: pediatric AML patients
Experiment: AML02 multicenter clinical trial, LDAC vs HDAC induction arms: MRD1, EFS and OS overall and by ACS10 score
Assay type: in vivo, human
Design: 3-year EFS / 4-year OS / 5-year OS / 4-year EFS / 5-year EFS / 3-year OS: unit not given here
Conditions: for Event-free Survival 5 years / Overall Survival 5 years: AML02 cohort
Procedure: One hundred and sixty-six pediatric AML patients treated under the multicenter AML02 clinical trial protocol were included in the study. Details of study design and clinical outcome have been described elsewhere. Briefly, patients with de novo AML were randomized to receive either high (3 g/m^2, given every 12 h on days 1, 3, and 5; this condition is designated “HDAC”) or low dose (100 mg/m^2 given every 12 h on days 1-10; this condition is designated “LDAC”) cytarabine along with daunorubicin (50 mg/m^2 on days 2, 4 and 6) and etoposide (100 mg/m^2 on days 2-6) as a first course of chemotherapy with subsequent treatment tailored to response and risk classification. For initial risk assignment, patients with cytogenetic translocations comprisingt [8;21] (e.g., translocation between chromosome 8 and 21), inv (16), ort [9;11] were classified as low-risk. Patients with features such as deletion of chromosome 7 (−7), presence of FLT3-ITD mutation (FLT-ITD), cytogenetic translocation comprisingt [6;9], megakaryoblastic leukemia (AMKL), treatment-related AML, or AML arising from MDS were classified as high-risk AML. Patients lacking any of the low or high-risk group features were provisionally classified as standard risk AML. Patient risk classifications were updated on the basis of minimal residual disease evaluations. Clinical endpoints used in this evaluation were defined as follows: i) Minimal residual disease after induction 1 (“MRD1”) (patients were defined as MRD positive if they had ≥1 leukemic cell per 1000 mononuclear bone marrow cells (≥0.1%); ii) Complete remission defined as trilineage hematopoietic recovery with less than 5% blasts in the marrow; iii) Event-free survival (“EFS”) defined as the time from study enrollment to induction failure, relapse, secondary malignancy, death, or study withdrawal for any reason, with event-free patients censored on the date of last follow-up; and iv) Overall survival (“OS”) defined as the time from study enrollment to death, with living patients censored on the date of last follow-up. St. Jude Institutional Review Board approved the study, and informed consent was obtained from parents/guardians and consents/assents from the individuals.
The association of MRD1, EFS, and OS was evaluated with ACS10 scores in the AML02 discovery cohort and the AAML0531 validation cohort. The Kaplan-Meier method was used to estimate the EFS and OS probabilities for well-defined groups of patients. Cox regression models were used to associate ACS10 with EFS and OS and used logistic regression models to associate ACS10 with MRD1. The Wilcoxon rank-sum test and Kruskal-Wallis test were used to compare medians of numeric variables across groups. Chi-square tests and Fisher's exact test were used to evaluate the association among pairs of categorical variables. All p-values are two-sided. All statistical analyses were performed using R software (www.r-project.org).
The multicenter AML02 clinical trial randomly assigned subjects to receive low dose ara-C (LDAC: 100 mg/m^2; n=91 patients) or high dose ara-C(HDAC: 3 g/m^2; n=75 patients) in combination with daunorubicin and etoposide as the first course of chemotherapy as described above in patient cohort section. Thus, the association of SNPs with outcome within each arm separately was also explored (Table 5).
Given patients in AML02 cohort were randomized to receive low or augmented high dose of ara-C, this unique opportunity was leveraged to evaluate performance of ACS10 score within the different ara-C dose treatment arms (of note LDAC and HDAC arms had similar distribution of patients across, disease characteristics, risk group, cytogenetics, race, gender etc. Table 3). […]

[1] = ACS10 score 0, risk-adjusted Cox model
[2] = ACS10 score 1, risk-adjusted Cox model
[3] = ACS10 score 2, risk-adjusted Cox model
[4] = ACS10 score 3, risk-adjusted Cox model
[5] = ACS10 score 4, risk-adjusted Cox model
[6] = ACS10 score 5, risk-adjusted Cox model
[7] = ACS10 score −1, risk-adjusted Cox model
[8] = ACS10 score −2, risk-adjusted Cox model
[9] = ACS10 score −3, risk-adjusted Cox model
[10] = ACS10 score −5, risk-adjusted Cox model
[11] = low ACS10 score (≤0) patients, AML02
[12] = number of patients per arm, after induction 1, AML02 cohort
[13] = patients with ACS10 score of +5, risk-adjusted Cox model
[14] = patients with ACS10 score of −5, risk-adjusted Cox model

Structure (SMILES): Nc1ccn([C@@H]2O[C@H](CO)[C@@H](O)[C@@H]2O)c(=O)n1 [HDAC, cytarabine]
- 3-year EFS [1]: 0.6070
- 3-year OS [1]: 0.6946
- 4-year EFS [1]: 0.5942
- 4-year OS [1]: 0.6875
- 5-year EFS [1]: 0.5872
- 5-year OS [1]: 0.6875
- 3-year EFS [2]: 0.6247
- 3-year OS [2]: 0.7260
- 4-year EFS [2]: 0.6122
- 4-year OS [2]: 0.7194
- 5-year EFS [2]: 0.6053
- 5-year OS [2]: 0.7194
- 3-year EFS [3]: 0.6418
- 3-year OS [3]: 0.7550
- 4-year EFS [3]: 0.6297
- 4-year OS [3]: 0.7489
- 5-year EFS [3]: 0.6231
- 5-year OS [3]: 0.7489
- 3-year EFS [4]: 0.6585
- 3-year OS [4]: 0.7816
- 4-year EFS [4]: 0.6468
- 4-year OS [4]: 0.7760
- 5-year EFS [4]: 0.6403
- 5-year OS [4]: 0.7760
- 3-year EFS [5]: 0.6747
- 3-year OS [5]: 0.8058
- 4-year EFS [5]: 0.6633
- 4-year OS [5]: 0.8007
- 5-year EFS [5]: 0.6570
- 5-year OS [5]: 0.8007
- 3-year EFS [6]: 0.6903
- 3-year OS [6]: 0.8278
- 4-year EFS [6]: 0.6793
- 4-year OS [6]: 0.8232
- 5-year EFS [6]: 0.6732
- 5-year OS [6]: 0.8232
- 3-year EFS [7]: 0.5889
- 3-year OS [7]: 0.6609
- 4-year EFS [7]: 0.5758
- 4-year OS [7]: 0.6533
- 5-year EFS [7]: 0.5686
- 5-year OS [7]: 0.6533
- 3-year EFS [8]: 0.5703
- 3-year OS [8]: 0.6251
- 4-year EFS [8]: 0.5569
- 4-year OS [8]: 0.6170
- 5-year EFS [8]: 0.5496
- 5-year OS [8]: 0.6170
- 3-year EFS [9]: 0.5513
- 3-year OS [9]: 0.5873
- 4-year EFS [9]: 0.5377
- 4-year OS [9]: 0.5788
- 5-year EFS [9]: 0.5302
- 5-year OS [9]: 0.5788
- 3-year EFS [10]: 0.5123
- 3-year OS [10]: 0.5073
- 4-year EFS [10]: 0.4983
- 4-year OS [10]: 0.4983
- 5-year EFS [10]: 0.4906
- 5-year OS [10]: 0.4983
- Event-free Survival 5 years (High ACS10 score group): 0.631 ± 0.074
- Overall Survival 5 years (High ACS10 score group): 0.743 ± 0.067
- Event-free Survival 5 years (Low ACS10 score group): 0.548 ± 0.089
- Overall Survival 5 years (Low ACS10 score group): 0.634 ± 0.088
- 5 year EFS [11]: 55%
- five-year OS [11]: 63%
- MRDIND1 Negative (<0.1%) [12]: 43^+
- MRDIND1 Positive (>=0.1%) [12]: 28^+
- 3-year EFS, model estimate [13]: 69.0%
- 3-year OS, model estimate [13]: 82.8%
- 3-year EFS, model estimate [14]: 51.2%
- 3-year OS, model estimate [14]: 50.7%
- Event-free Survival 5 years (probability, whole arm): 0.597 ± 0.0569
- Overall Survival 5 years (probability, whole arm): 0.699 ± 0.0537
- EFS HR, low-ACS10 vs high-ACS10 score (within arm, AML02): 1.28
- OS HR, low-ACS10 vs high-ACS10 score (within arm, AML02): 1.56
- EFS HR for each one-point increase in ACS10 (within arm, risk-adjusted Cox model, AML02): 0.92
